Laboratory results taken from PubChem BioAssay (NCI).
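GI50: concentration for 50% inhibition of growth. TGI is the concentration that stops growth completely.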

What was measured:
Assay in all cases: NCI anticancer screen, dose series, 384-well format
[1] = test system: OVCAR-4 ovarian
[2] = test system: MDA-MB-231 breast
[3] = test system: UACC-62 melanoma
[4] = test system: HS 578T breast
[5] = test system: HOP-92 NSCLC
[6] = test system: KM12 colon
[7] = test system: CCRF-CEM leukemia
[8] = test system: OVCAR-5 ovarian
[9] = test system: EKVX NSCLC
[10] = test system: 786-0 renal
[11] = test system: UACC-257 melanoma
[12] = test system: SK-OV-3 ovarian
[13] = test system: MDA-MB-435 melanoma
[14] = test system: K-562 leukemia
[15] = test system: HCC-2998 colon
[16] = test system: DU-145 prostate
[17] = test system: LOX IMVI melanoma
[18] = test system: NCI-H460 NSCLC
[19] = test system: T-47D breast
[20] = test system: BT-549 breast
[21] = test system: PC-3 prostate
[22] = test system: ACHN renal
[23] = test system: HOP-62 NSCLC
[24] = test system: U251 glioblastoma
[25] = test system: HCT-116 colon
[26] = test system: CAKI-1 renal
[27] = test system: RXF 393 renal
[28] = test system: SF-268 CNS
[29] = test system: SK-MEL-2 melanoma
[30] = test system: NCI-H23 lung
[31] = test system: SR leukemia
[32] = test system: HL-60(TB) leukemia
[33] = test system: NCI-H226 lung
[34] = test system: OVCAR-3 ovarian
[35] = test system: IGROV1 ovarian
[36] = test system: SF-539 CNS
[37] = test system: SF-295 CNS
[38] = test system: HT29 colon
[39] = test system: A498 renal
[40] = test system: UO-31 renal
[41] = test system: SK-MEL-28 melanoma
[42] = test system: A549 NSCLC
[43] = test system: SN12C renal
[44] = test system: MCF7 breast
[45] = test system: NCI-H522 lung
[46] = test system: MOLT-4 leukemia
[47] = test system: MDA-MB-468 breast
[48] = test system: COLO 205 colon
[49] = test system: TK-10 renal
[50] = test system: SNB-19 CNS
[51] = test system: NCI/ADR-RES ovarian
[52] = test system: NCI-H322M lung
[53] = test system: RPMI-8226 leukemia
[54] = test system: SK-MEL-5 melanoma
[55] = test system: M14 melanoma
[56] = test system: SNB-75 CNS
[57] = test system: MALME-3M melanoma
[58] = test system: SW-620 colon
[59] = test system: HCT-15 colon

## NC1(Cc2ccc(Cl)cc2)CCN(c2ncnc3[nH]ccc23)CC1
[1]
  GI50: 16.4 µM
  TGI: 43.9 µM
[2]
  GI50: 4.76 µM
  TGI: 16.4 µM
[3]
  GI50: 4.76 µM
  TGI: 16.4 µM
[4]
  GI50: 1.21 µM
  TGI: 6.14 µM
[5]
  GI50: 2.2 µM
  TGI: 9.62 µM
[6]
  GI50: 2.25 µM
  TGI: 11 µM
[7]
  GI50: 2.31 µM
  TGI: 10.8 µM
[8]
  GI50: 6.84 µM
  TGI: 26.7 µM
[9]
  GI50: 4.51 µM
  TGI: 16.5 µM
[10]
  GI50: 2.33 µM
  TGI: 12.1 µM
[11]
  GI50: 1.93 µM
  TGI: 3.96 µM
[12]
  GI50: 3.84 µM
  TGI: 17.3 µM
[13]
  GI50: 2.41 µM
  TGI: 6.35 µM
[14]
  GI50: 3.4 µM
  TGI: 15.7 µM
[15]
  GI50: 1.96 µM
  TGI: 5.94 µM
[16]
  GI50: 8.33 µM
  TGI: 23 µM
[17]
  GI50: 4.07 µM
  TGI: 13.7 µM
[18]
  GI50: 1.76 µM
  TGI: 9.36 µM
[19]
  GI50: 2.35 µM
  TGI: 12.7 µM
[20]
  GI50: 1.63 µM
  TGI: 5.8 µM
[21]
  GI50: 3.11 µM
  TGI: 15.8 µM
[22]
  GI50: 3.89 µM
  TGI: 15.8 µM
[23]
  GI50: 4.77 µM
  TGI: 17.2 µM
[24]
  GI50: 4.4 µM
  TGI: 15.7 µM
[25]
  GI50: 3.67 µM
  TGI: 13.4 µM
[26]
  GI50: 3.96 µM
  TGI: 16 µM
[27]
  GI50: 2.14 µM
  TGI: 7.4 µM
[28]
  GI50: 5.54 µM
  TGI: 18.2 µM
[29]
  GI50: 7.52 µM
  TGI: 19 µM
[30]
  GI50: 4 µM
  TGI: 16 µM
[31]
  GI50: 2.07 µM
  TGI: 4 µM
[32]
  GI50: 3.01 µM
  TGI: 9.25 µM
[33]
  GI50: 5.53 µM
  TGI: 18.1 µM
[34]
  GI50: 9.12 µM
  TGI: 21.4 µM
[35]
  GI50: 1.53 µM
  TGI: 9.67 µM
[36]
  GI50: 1.46 µM
  TGI: 7.16 µM
[37]
  GI50: 2.74 µM
  TGI: 14.8 µM
[38]
  GI50: 2.63 µM
  TGI: 12.3 µM
[39]
  GI50: 3.16 µM
  TGI: 14.8 µM
[40]
  GI50: 4.28 µM
  TGI: 17.6 µM
[41]
  GI50: 2.26 µM
  TGI: 5.94 µM
[42]
  GI50: 4.27 µM
  TGI: 15.5 µM
[43]
  GI50: 3.46 µM
  TGI: 14.9 µM
[44]
  GI50: 2.55 µM
  TGI: 12.7 µM
[45]
  GI50: 5.41 µM
  TGI: 19.5 µM
[46]
  GI50: 1.09 µM
  TGI: 2.6 µM
[47]
  GI50: 1.61 µM
  TGI: 6.55 µM
[48]
  GI50: 3.34 µM
  TGI: 12.3 µM
[49]
  GI50: 3.15 µM
  TGI: 13.3 µM
[50]
  GI50: 3.28 µM
  TGI: 13.5 µM
[51]
  GI50: 8.66 µM
  TGI: 21.1 µM
[52]
  GI50: 4.85 µM
  TGI: 17.6 µM
[53]
  GI50: 1.36 µM
  TGI: 4.48 µM
[54]
  GI50: 3.17 µM
  TGI: 12.8 µM
[55]
  GI50: 4.51 µM
  TGI: 16.1 µM
[56]
  GI50: 1.54 µM
  TGI: 7.76 µM
[57]
  GI50: 2.25 µM
  TGI: 5.8 µM
[58]
  GI50: 4.6 µM
  TGI: 16.2 µM
[59]
  GI50: 3.93 µM
  TGI: 17.8 µM
